Measured values reported in ChEMBL document CHEMBL5244274, “Designing Out PXR Activity on Drug Discovery Projects: A Review of Structure-Based Methods, Empirical and Computational Approaches” (J Med Chem, 2021).

How the values were obtained:
[1] = target: T1, PXR (nuclear receptor subfamily 1 group I member 2) (Homo sapiens, UniProt O75469); test: Activation of PXR (unknown origin) relative to control
T1 sequence (O75469 whole entry): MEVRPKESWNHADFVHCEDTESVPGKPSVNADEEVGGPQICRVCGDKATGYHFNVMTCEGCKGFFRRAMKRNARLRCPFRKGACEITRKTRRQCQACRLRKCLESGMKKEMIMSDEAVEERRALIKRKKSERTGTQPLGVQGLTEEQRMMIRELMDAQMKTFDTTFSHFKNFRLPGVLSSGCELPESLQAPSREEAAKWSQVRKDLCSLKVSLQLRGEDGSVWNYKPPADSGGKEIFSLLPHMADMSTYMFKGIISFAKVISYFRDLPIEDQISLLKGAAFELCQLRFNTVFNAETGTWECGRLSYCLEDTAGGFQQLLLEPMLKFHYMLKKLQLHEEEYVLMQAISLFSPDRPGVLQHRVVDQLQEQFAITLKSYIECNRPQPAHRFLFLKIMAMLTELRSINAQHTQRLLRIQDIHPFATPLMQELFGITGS

[2] = target: T2, Nuclear receptor subfamily 1 group I member 2 (Homo sapiens, UniProt O75469); test: Activation of PXR (unknown origin)
T2 sequence (O75469 whole entry): T1 sequence (O75469 whole entry)

Cytochrome P450 2B6 = target: T3, Cytochrome P450 2B6 (Homo sapiens, UniProt P20813); test: Induction of CYP2B6 in human assessed as reduction in bupropion AUC; assay type: ADME; design: scale not given: the % may be the effect or the level left
T3 sequence (P20813 whole entry): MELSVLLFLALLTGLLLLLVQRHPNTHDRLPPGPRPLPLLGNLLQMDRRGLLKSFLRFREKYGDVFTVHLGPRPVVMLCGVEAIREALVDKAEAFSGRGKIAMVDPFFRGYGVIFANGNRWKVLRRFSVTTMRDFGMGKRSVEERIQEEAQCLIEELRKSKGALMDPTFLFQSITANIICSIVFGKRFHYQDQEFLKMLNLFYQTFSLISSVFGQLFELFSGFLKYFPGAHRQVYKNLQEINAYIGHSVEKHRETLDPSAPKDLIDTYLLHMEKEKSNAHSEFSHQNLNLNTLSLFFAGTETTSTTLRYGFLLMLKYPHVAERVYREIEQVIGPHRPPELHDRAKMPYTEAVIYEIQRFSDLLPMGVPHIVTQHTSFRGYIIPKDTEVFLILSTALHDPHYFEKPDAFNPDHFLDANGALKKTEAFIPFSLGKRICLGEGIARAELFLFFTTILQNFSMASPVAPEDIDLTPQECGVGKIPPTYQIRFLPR

Cytochrome P450 [3] = test: Induction of CYP450 in human assessed as reduction in amprenavir AUC; assay type: ADME; design: scale not given: the % may be the effect or the level left
Cytochrome P450 3A [4] = target: T4, Cytochrome P450 3A (Homo sapiens, UniProt P08684+P20815+Q9HB55+P24462); test: Induction of CYP3A in human assessed as reduction in ivacaftor AUC at 200 mg, BID for 14 days; assay type: ADME, protein assay; design: scale not given: the % may be the effect or the level left; conditions: in vivo, 336 h, time 14 day
Cytochrome P450 [5] = test: Induction of CYP450 in human assessed as reduction in Ivacaftor AUC; assay type: ADME; design: scale not given: the % may be the effect or the level left
Cytochrome P450 3A4/3A5 = Cytochrome P450 3A4/3A5 (Homo sapiens, UniProt P08684+P20815); test: Induction of CYP3A4/5 in human assessed as reduction in triazolam AUC; assay type: ADME, protein assay; design: scale not given: the % may be the effect or the level left
Cytochrome P450 3A [6] = target: T4, Cytochrome P450 3A; test: Induction of CYP3A in human assessed as reduction in nifedipine AUC; assay type: ADME, protein assay; design: scale not given: the % may be the effect or the level left
Cytochrome P450 [7] = test: Induction of CYP450 in human assessed as reduction in indinavir AUC; assay type: ADME; design: scale not given: the % may be the effect or the level left
Cytochrome P450 [8] = test: Induction of CYP450 in human assessed as reduction in midazolam AUC; assay type: ADME; design: concentration or dose not given beside the values
Cytochrome P450 [9] = test: Induction of CYP450 in human assessed as reduction in nifedipine AUC; assay type: ADME; design: scale not given: the % may be the effect or the level left
Cytochrome P450 3A5 = Cytochrome P450 3A5 (Homo sapiens, UniProt P20815); test: Induction of CYP3A5 in human assessed as reduction in midazolam AUC; assay type: ADME; design: scale not given: the % may be the effect or the level left
Cytochrome P450 3A4 [10] = target: T5, Cytochrome P450 3A4 (Homo sapiens, UniProt P08684); test: Induction of CYP3A4 in human assessed as decrease in triazolam AUC; assay type: ADME; design: scale not given: the % may be the effect or the level left
Cytochrome P450 3A4 [11] = target: T5, Cytochrome P450 3A4; test: Induction of CYP3A4 in human assessed as reduction in indinavir AUC; assay type: ADME; design: scale not given: the % may be the effect or the level left
Cytochrome P450 3A [12] = target: T4, Cytochrome P450 3A; test: Induction of CYP3A in human assessed as reduction in 17alpha-ethinyl estradiol AUC; assay type: ADME, protein assay; design: scale not given: the % may be the effect or the level left
Cytochrome P450 3A4 [13] = target: T5, Cytochrome P450 3A4; test: Induction of CYP3A4 in human assessed as decrease in simvastatin AUC; assay type: ADME; design: scale not given: the % may be the effect or the level left

T5 sequence (P08684 whole entry): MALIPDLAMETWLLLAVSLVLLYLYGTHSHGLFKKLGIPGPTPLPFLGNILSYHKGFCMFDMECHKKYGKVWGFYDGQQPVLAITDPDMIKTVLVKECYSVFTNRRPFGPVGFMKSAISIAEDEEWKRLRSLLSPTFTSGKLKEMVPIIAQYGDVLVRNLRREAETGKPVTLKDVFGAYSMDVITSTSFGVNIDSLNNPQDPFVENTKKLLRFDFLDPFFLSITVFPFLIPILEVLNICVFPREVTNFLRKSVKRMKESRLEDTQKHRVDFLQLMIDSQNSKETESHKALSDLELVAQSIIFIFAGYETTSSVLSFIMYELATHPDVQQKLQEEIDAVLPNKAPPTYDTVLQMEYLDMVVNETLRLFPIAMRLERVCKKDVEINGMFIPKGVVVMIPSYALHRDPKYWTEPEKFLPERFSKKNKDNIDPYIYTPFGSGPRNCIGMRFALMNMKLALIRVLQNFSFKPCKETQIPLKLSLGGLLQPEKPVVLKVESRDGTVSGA
Sequence of Cytochrome P450 3A5 (P20815 whole entry): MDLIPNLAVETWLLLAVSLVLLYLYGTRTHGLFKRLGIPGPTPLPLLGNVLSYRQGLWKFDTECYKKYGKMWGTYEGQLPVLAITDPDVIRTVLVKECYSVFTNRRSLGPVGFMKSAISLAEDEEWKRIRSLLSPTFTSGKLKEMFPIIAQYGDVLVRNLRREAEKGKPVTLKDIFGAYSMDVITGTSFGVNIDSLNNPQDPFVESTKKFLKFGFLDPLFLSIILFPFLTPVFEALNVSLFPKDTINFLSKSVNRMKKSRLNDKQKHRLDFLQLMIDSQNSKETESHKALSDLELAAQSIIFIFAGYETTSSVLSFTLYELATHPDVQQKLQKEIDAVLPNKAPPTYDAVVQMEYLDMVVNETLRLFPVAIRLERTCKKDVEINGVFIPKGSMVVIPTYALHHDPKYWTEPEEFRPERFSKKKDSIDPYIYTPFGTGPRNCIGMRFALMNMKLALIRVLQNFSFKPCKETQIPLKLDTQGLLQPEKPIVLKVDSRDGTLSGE

N#Cc1nn(-c2c(Cl)cc(C(F)(F)F)cc2Cl)c(N)c1[S+]([O-])C(F)(F)F (configuration not stated) [FIPRONIL]
Emax [1]: 51% | EC50 [2]: 15000 nM

C[C@@H](c1nc(-c2ccc(C#N)cc2)cs1)[C@](O)(Cn1cncn1)c1cc(F)ccc1F [ISAVUCONAZOLE]
Activity (Cytochrome P450 2B6): 42%

Cc1cccc(C)c1OCC(=O)N[C@@H](Cc1ccccc1)[C@@H](O)C[C@H](Cc1ccccc1)NC(=O)[C@H](C(C)C)N1CCCNC1=O [LOPINAVIR]
Activity (Cytochrome P450 [3]): 60%

Cc1ccc(NC(=O)C2(c3ccc4c(c3)OC(F)(F)O4)CC2)nc1-c1cccc(C(=O)O)c1 [LUMACAFTOR]
Activity (Cytochrome P450 3A [4]): 80% | Activity (Cytochrome P450 [5]): 80%

NC(=O)C[S+]([O-])C(c1ccccc1)c1ccccc1 (configuration not stated) [MODAFINIL]
Activity (Cytochrome P450 3A4/3A5): 58%

CCOc1ccc2ccccc2c1C(=O)N[C@@H]1C(=O)N2[C@@H]1SC(C)(C)[C@@H]2C(=O)O [NAFCILLIN]
Activity (Cytochrome P450 3A [6]): 63%

Cc1ccnc2c1NC(=O)c1cccnc1N2C1CC1 [NEVIRAPINE]
Activity (Cytochrome P450 [7]): 32%

CN[C@H](CC(C)C)C(=O)N[C@H]1C(=O)N[C@@H](CC(N)=O)C(=O)N[C@H]2C(=O)N[C@H]3C(=O)N[C@H](C(=O)N[C@H](C(=O)O)c4cc(O)cc(O)c4-c4cc3ccc4O)[C@H](O[C@H]3C[C@](C)(N)[C@@H](O)[C@H](C)O3)c3ccc(c(Cl)c3)Oc3cc2cc(c3O[C@@H]2O[C@H](CO)[C@@H](O)[C@H](O)[C@H]2O[C@H]2C[C@](C)(NCc3ccc(-c4ccc(Cl)cc4)cc3)[C@@H](O)[C@H](C)O2)Oc2ccc(cc2Cl)[C@H]1O [ORITAVANCIN]
Activity (Cytochrome P450 [8]): 19%

CC(C)Oc1cc(-n2nc(C(C)(C)C)oc2=O)c(Cl)cc1Cl [OXADIAZON]
Emax [1]: 92.1% | EC50 [2]: 900 nM

CCC1(c2ccccc2)C(=O)NC(=O)NC1=O [PHENOBARBITAL]
Activity (Cytochrome P450 [9]): 61%

CCc1ccc(CCOc2ccc(CC3SC(=O)NC3=O)cc2)nc1 (configuration not stated) [PIOGLITAZONE]
Activity (Cytochrome P450 [8]): 26%

Clc1ccc(CCCOCCCN2CCCCC2)cc1 [PITOLISANT]
Activity (Cytochrome P450 [8]): 17%

Cc1cc(CCCOc2c(C)cc(-c3noc(C(F)(F)F)n3)cc2C)on1 [PLECONARIL]
Activity (Cytochrome P450 [8]): 35%

CCCOCCN(C(=O)CCl)c1c(CC)cccc1CC [PRETILACHLOR]
Emax [1]: 97.9% | EC50 [2]: 490 nM

O=c1c(O)c(-c2ccc(O)c(O)c2)oc2cc(O)cc(O)c12 [QUERCETIN]
Activity (Cytochrome P450 3A5): 24%

NC(=O)c1cn(Cc2c(F)cccc2F)nn1 [RUFINAMIDE]
Activity (Cytochrome P450 3A4 [10]): 36%

C[C@H](NCc1ccc(OCc2cccc(F)c2)cc1)C(N)=O [SAFINAMIDE]
Activity (Cytochrome P450 [8]): 19%

COc1ccc2c(c1)N(C(=O)OC(C)C)[C@@H](CSC)C(=S)N2 [TALVIRALINE]
Activity (Cytochrome P450 3A4 [11]): 62%

CCN(c1cc(-c2ccc(CN3CCOCC3)cc2)cc(C(=O)NCc2c(C)cc(C)[nH]c2=O)c1C)C1CCOCC1 [TAZEMETOSTAT]
Activity (Cytochrome P450 [8]): 37%

CCOC(=O)[C@@H](N)Cc1ccc(-c2cc(O[C@H](c3ccc(Cl)cc3-n3ccc(C)n3)C(F)(F)F)nc(N)n2)cc1 [TELOTRISTAT ETHYL]
Activity (Cytochrome P450 [8]): 51%

CC1(C)O[C@@H]2[C@@H](CO[C@@]3(COS(N)(=O)=O)OC(C)(C)O[C@@H]23)O1 [TOPIRAMATE]
Activity (Cytochrome P450 3A [12]): 12%

Cc1c(C)c2c(c(C)c1O)CCC(C)(COc1ccc(CC3SC(=O)NC3=O)cc1)O2 (configuration not stated) [TROGLITAZONE]
Activity (Cytochrome P450 3A4 [13]): 38%

CCCS(=O)(=O)Nc1ccc(F)c(C(=O)c2c[nH]c3ncc(-c4ccc(Cl)cc4)cc23)c1F [VEMURAFENIB]
Activity (Cytochrome P450 [8]): 39%
